PubChem BioAssay (NCI)
“And” between values parts separate entries of the source, which are not always exact repeats. Equal values may be shown once.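 Assay format: 96-well plates, 48-hour exposure. GI50 is the concentration that inhibits growth by half. TGI marks complete inhibition of growth.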

Columns and labels:
Test in all cases: growth of human tumour cells (NCI), 48 h
SF-268 CNS = system: SF-268 CNS
SNB-19 CNS = system: SNB-19 CNS
DU-145 prostate = system: DU-145 prostate
MDA-MB-435 = system: MDA-MB-435
MCF7 breast = system: MCF7 breast
SF-295 CNS = system: SF-295 CNS
NCI-H522 lung = system: NCI-H522 lung
HCC-2998 colon = system: HCC-2998 colon
NCI/ADR-RES ovarian = system: NCI/ADR-RES ovarian
SK-MEL-2 melanoma = system: SK-MEL-2 melanoma

SMILES	TGI (SF-268 CNS)	TGI (SNB-19 CNS)	TGI (DU-145 prostate)	TGI (MDA-MB-435)	TGI (MCF7 breast)	TGI (SF-295 CNS)	TGI (NCI-H522 lung)	TGI (HCC-2998 colon)	TGI (NCI/ADR-RES ovarian)	TGI (SK-MEL-2 melanoma)	GI50 (SF-268 CNS)	GI50 (SNB-19 CNS)	GI50 (DU-145 prostate)	GI50 (MDA-MB-435)	GI50 (MCF7 breast)	GI50 (SF-295 CNS)	GI50 (HCC-2998 colon)	GI50 (NCI/ADR-RES ovarian)	GI50 (SK-MEL-2 melanoma)
C[N+]1(CCCCN2c3ccccc3Sc3cc(N=[N+]=[N-])ccc32)CCN(C(=O)CCNC(=O)Cc2ccc(C(=O)c3ccccc3)cc2)CC1	71.5 µM	66.7 µM	35.1 µM	> 67.7 µM	68 µM	45.5 µM	> 76.9 µM	39.9 µM	> 91.1 µM	> 79.4 µM	–	–	–	–	–	–	–	–	–
CCOC(=O)C(NC(=O)CC)(Nc1ccccc1F)C(F)(F)F (centres undefined)	> 100 µM	> 100 µM	> 100 µM	> 100 µM	> 100 µM	> 100 µM	> 100 µM	> 100 µM	> 100 µM	> 100 µM	–	–	–	–	–	–	–	–	–
C=C1C[C@@H]2CC[C@@]34CC5O[C@H]6C(O[C@H]7CC[C@H](CC(=O)O[C@@H]8[C@@H](C)[C@@H]9O[C@@H]%10C[C@]%11(C[C@@H]%12O[C@]%13(C[C@H](C)[C@@H]%14O[C@@H]%15CC(C(COC(C)=O)OC(C)=O)O[C@@H]%15C[C@@H]%14O%13)C[C@H](C)[C@@H]%12O%11)O[C@@H]%10C[C@@H]9O[C@H]8CC8O[C@@H](CC[C@@H]1O2)C[C@@H](C)C8(O)CO)O[C@@H]7[C@@H]6O3)[C@H]5O4 (some centres undefined)	> 0.955 µM	> 1 µM	> 1 µM	> 0.879 µM	> 1 µM	> 1 µM	0.417 µM	> 0.225 µM	> 1 µM	> 1 µM	–	–	–	–	–	–	–	–	–
C/C(=C\CO)CC[C@@H]1[C@@]2(C)CCCC(C)(C)[C@@H]2CC[C@@]1(C)O	32.4 µM	42.9 µM	34.3 µM	34.6 µM	30.8 µM	33.7 µM	31.4 µM	29.5 µM	31.9 µM	31.4 µM	–	–	–	–	–	–	–	–	–
OC(CCN1CCN(CCOC(c2ccc(F)cc2)c2ccc(F)cc2)CC1)c1ccc(Br)cc1 (centres undefined)	17.6 µM	21.2 µM	17.4 µM	6.82 µM	9.85 µM	9.73 µM	16.4 µM	3.53 µM	7.67 µM	18.8 µM	–	–	–	–	–	–	–	–	–
Cc1nc2ccccc2n1Cc1ccc(NC(=S)Nc2ccccc2)cc1	> 100 µM	> 100 µM	> 100 µM	> 100 µM	> 100 µM	> 100 µM	> 100 µM	> 100 µM	> 100 µM	> 100 µM	–	–	–	–	–	–	–	–	–
O=C1C=CC(=O)c2c(O)c(N3CCN(c4ncccn4)CC3)c(Cl)c(O)c21	7.88 µM	18 µM	12.9 µM	3.29 µM	3.32 µM	25.5 µM	4.42 µM	25.7 µM	8.69 µM	3.47 µM	–	–	–	–	–	–	–	–	–
COC(=O)[C@@H]1[C@H]2CC[C@]3(C)[C@@H](OC(C)=O)CC[C@H]3[C@@H]2CC[C@H]1C1(C)SCCS1	> 100 µM	> 100 µM	> 100 µM	35.3 µM	83 µM	73.6 µM	56.7 µM	86.2 µM	57.1 µM	40 µM	–	–	–	–	–	–	–	–	–
O=C1c2cccnc2C(=O)c2c1nc1ccccc1c2-c1ccc2c3c(nc4ccccc42)C(=O)c2cccnc2-c13	6.46 µM	7.92 µM	1.34 µM	5.58 µM	8.05 µM	7.68 µM	4.58 µM	9.28 µM	5.16 µM	14.1 µM	–	–	–	–	–	–	–	–	–
O=C(CCl)Nc1ccc(C(=O)N/N=C/c2ccc(Cl)cc2)cc1	3.88 µM and 6.85 µM	5.74 µM and 20.1 µM	8.44 µM and 27 µM	3.27 µM and 21.7 µM	22.6 µM	3.1 µM and 9.23 µM	3.6 µM and 3.61 µM	22.5 µM	8 µM and 3.38 µM	4.14 µM and 14.7 µM	1.81 µM	3.09 µM	13.5 µM	9.67 µM	10 µM	1.65 µM	3.85 µM	1.5 µM	2.28 µM
Cc1ccc2nc(Nc3ccccc3C)c(Nc3ccccc3C)nc2c1	> 100 µM	> 100 µM	> 100 µM	> 94.2 µM	> 100 µM	52.3 µM	35.9 µM	61.3 µM	> 100 µM	31.7 µM	–	–	–	–	–	–	–	–	–
CC(C)(C)C#CI1OC(=O)c2ccccc21	14.3 µM	22.9 µM	17.8 µM	18.4 µM	15.4 µM	28.2 µM	3.82 µM	23.6 µM	> 45.4 µM	27 µM	–	–	–	–	–	–	–	–	–
Clc1sc(Cl)c2c1[C@H](Br)C[C@@H]2Cl	49.9 µM	> 100 µM	> 100 µM	40.8 µM	50.8 µM	> 100 µM	33.5 µM	> 100 µM	44.2 µM	> 100 µM	–	–	–	–	–	–	–	–	–
C[C@@H](CCO)OC1OC(COC(=O)C(C)(C)C)C(OC(=O)C(C)(C)C)C(OC(=O)C(C)(C)C)C1OC(=O)C(C)(C)C (some centres undefined)	> 100 µM	> 100 µM	> 100 µM	> 100 µM	> 100 µM	76.7 µM	95.7 µM	31.4 µM	> 100 µM	> 100 µM	–	–	–	–	–	–	–	–	–
COc1ccc2c(c1)-c1nc(=S)n(CCN(C)C)c3ccc([N+](=O)[O-])c(c13)N2	2.16 µM	3.87 µM	2.93 µM	7.82 µM	3.43 µM	18.3 µM	2.04 µM	2.15 µM	3.61 µM	24.3 µM	–	–	–	–	–	–	–	–	–
Brc1ccc(/C(N=N/C(=N\Sc2ccccc2)c2ccc(Br)cc2)=N/Sc2ccccc2)cc1	> 100 µM	> 100 µM	> 100 µM	> 100 µM	> 100 µM	> 100 µM	> 100 µM	> 100 µM	> 100 µM	> 100 µM	–	–	–	–	–	–	–	–	–
